Experimental data published in US20040242591A1, “Oxazolidinone derivatives as pontential antimicrobials” (priority 2001, published 2004).

Experiments:
[1] = tested on: S.aureus ATCC 25923; experiment: MIC by agar incorporation method, S.aureus 25923; type: cell-based, Staphylococus aureus; design: unit not given here; conditions: Mueller Hinton agar, 10^4 CFU/spot, 18 hours
[2] = tested on: MRSA 15187; experiment: MIC by agar incorporation method, MRSA 15187; type: cell-based, Methicillin Resistant Staphylococcus aureus; design: unit not given here; conditions: Mueller Hinton agar, 10^4 CFU/spot, 24 hours
From the text: 2) MRSA 15187—Methicillin Resistant Staphylococcus aureus

[3] = tested on: MRSA 562; experiment: MIC by agar incorporation method, MRSA 562; type: cell-based, Methicillin Resistant Staphylococcus aureus; design: unit not given here; conditions: Mueller Hinton agar, 10^4 CFU/spot, 24 hours
[4] = tested on: MRSA 33; experiment: MIC by agar incorporation method, MRSA 33; type: cell-based, Methicillin Resistant Staphylococcus aureus; design: unit not given here; conditions: Mueller Hinton agar, 10^4 CFU/spot, 24 hours
[5] = tested on: Ent. faecalis ATCC 29212; experiment: MIC by agar incorporation method, E.faecalis 29212; type: cell-based, Enterococcus faecalis; design: unit not given here; conditions: Mueller Hinton agar, 10^4 CFU/spot, 18 hours
From the text: 3) Ent. faecalis ATCC 29212—Enterococcus faecalis ATCC 29212

[6] = tested on: VRE 6A; experiment: MIC by agar incorporation method, VRE 6A; type: cell-based, Enterococcus faecium; design: unit not given here; conditions: Mueller Hinton agar, 10^4 CFU/spot, 18 hours
From the text: 4) Ent. faecium […]—Enterococcus faecium 6A Van®, Cipro®

[7] = tested on: Strep.pyog. ATCC 19615; experiment: MIC by agar incorporation method, S.pyogenes 19615; type: cell-based, Streptococcus pyogenes; design: unit not given here; conditions: Mueller Hinton agar, 10^4 CFU/spot, 18 hours
From the text: 6) Strep.pyog. ATCC 19615—Streptococcus pyogenes

[8] = tested on: Strep. pne. ATCC 6303; experiment: MIC by agar incorporation method, S. pneum 6303; type: cell-based, Streptococcus pneumoniae; conditions: Mueller Hinton agar, 10^4 CFU/spot, 18 hours
From the text: 5) Strep. pne. ATCC 6303—Streptococcus pneumoniae ATCC 6303

[9] = tested on: S. pneum AB 34; experiment: MIC by agar incorporation method, S. pneum AB 34; type: cell-based, Streptococcus pneumoniae; design: unit not given here; conditions: Mueller Hinton agar, 10^4 CFU/spot, 18 hours

Compound | In Vitro (MIC) S.aureus 25923 [1] | In Vitro (MIC) MRSA 15187 [2] | In Vitro (MIC) MRSA 562 [3] | In Vitro (MIC) MRSA 33 [4] | In Vitro (MIC) E.faecalis 29212 [5] | In Vitro (MIC) VRE 6A [6] | In Vitro (MIC) S.pyogenes 19615 [7] | In Vitro (MIC) S. pneum 6303 [8] [µg/mL] | In Vitro (MIC) S. pneum AB 34 [9]
CC(=O)NC[C@H]1CN(c2ccc(N3CCN(C(=O)c4ccc([N+](=O)[O-])o4)CC3)c(F)c2)C(=O)O1 [Compound No. 39, (S)-N-[[3-[3-Fluoro-4-[N-1-[4-{2-Furoyl-(5-nitro)acylic}]piperazinyl]phenyl]-2-oxo-5-oxazolidinyl]methyl]-acetamide] | 0.5 | 0.5 | 0.25 | 0.25 | 0.5 | <0.125 | <0.125 | 0.5 | 4
CC(=O)NC[C@H]1CN(c2ccc(N3CCN(C(=O)c4cc(N(C)C)c([N+](=O)[O-])s4)CC3)c(F)c2)C(=O)O1 [Compound No. 38] | 8 | 4 | 4 | 4 | 4 | 4 | 2 | 2 | 2
CC(=O)NC[C@H]1CN(c2ccc(N3CCN(Cc4cc(Br)c([N+](=O)[O-])s4)CC3)c(F)c2)C(=O)O1 [Compound No. 4] | 2 | 1 | 1 | 2 | 2 | 2 | 4 | 4 | 4
O=C(CCl)NC[C@H]1CN(c2ccc(N3CCN(Cc4ccc([N+](=O)[O-])s4)CC3)c(F)c2)C(=O)O1 [Compound No. 47, (S)-N-[[3-[3-Fluoro-4[N-1[4-[2-thiophenyl-(5-nitro)methyl}]piperazinyl]-phenyl]-2-oxo-5-oxazolidinyl]methyl]monochloroacetamide] | 4 | 4 | 4 | 4 | 4 | 4 | 1 | 2 | 4
CCN(C(=O)c1ccc([N+](=O)[O-])s1)C1CCN(c2ccc(N3C[C@H](CNC(C)=O)OC3=O)cc2F)CC1 [Compound No. 79, (S)-N-[[3-[3-Fluoro-4-[4-{N-ethyl-2-thienoyl-(5-nitro)}aminopiperidine-1-yl]phenyl]-2-oxo-5-oxazolidinyl]methyl]acetamide] | 0.5 | 0.5 | 0.5 | 0.5 | 2 | 2 | 0.5 | 4 | 4
CC(=O)NC[C@H]1CN(c2ccc(N3C(C)CN(Cc4ccc([N+](=O)[O-])o4)CC3C)c(F)c2)C(=O)O1 (stereo partly drawn) [Compound No. 63, (S)-N-[[3-[3-Fluoro-4-[N-1-[2,6-dimethyl-4-{2-furyl-(5-nitro)methyl-}]-piperazinyl]phenyl]-2-oxo-5-oxazolidinyl]methyl]acetamide] | 16 | 8 | 8 | 8 | 8 | 8 | 16 | 16 | 16
CC(=O)NC[C@H]1CN(c2ccc(N3CCN(C(=O)c4oc([N+](=O)[O-])cc4C)CC3)c(F)c2)C(=O)O1 [Compound No. 37, (S)-N-[[3-[3-Fluoro-4-[N-1-[4-{2-furoyl-(3-methyl-5-nitro)}]piperazinyl]phenyl]-2-oxo-5-oxazolidinyl]methyl]acetamide] | 0.5 | 0.5 | 0.5 | 0.5 | 0.25 | 0.5 | <0.06 | 0.25 | 0.125
CC(=O)NC[C@H]1CN(c2ccc(N3CCN(Cc4oc([N+](=O)[O-])cc4C)CC3)c(F)c2)C(=O)O1 [Compound No. 5] | 2 | 2 | 2 | 0.254 | 2 | 4 | 0.5 | 1 | 1
CC(=O)NC[C@H]1CN(c2ccc(N3CCN(C(C)c4ccc([N+](=O)[O-])s4)CC3)c(F)c2)C(=O)O1 (stereo partly drawn) [Compound No. 100] | 0.5 | 0.5 | 0.5 | 0.5 | 0.5 | 0.5 | 2 | 2 | 2
CC(=O)NC[C@H]1CN(c2ccc(N3CCN(Cc4cc(N(C)C)c([N+](=O)[O-])s4)CC3)c(F)c2)C(=O)O1 [Compound No. 19, (S)-N-[[3-[3-Fluoro-[N-1-[4-{2-thiophen-(4-dimethylamino-5-nitro)methyl}]piperazinyl]phenyl]-2-oxo-5-oxazolidinyl]methyl]-acetamide] | 4 | 4 | 8 | 8 | 4 | 4 | 2 | 2 | 2
CCN(C(=O)c1ccc([N+](=O)[O-])o1)C1CCN(c2ccc(N3C[C@H](CNC(C)=O)OC3=O)cc2F)CC1 [Compound No. 80, (S)-N-[[3-[3-Fluoro-4-[4-{N-ethyl-2-furoyl-(5-nitro)}aminopiperidine-1-yl]phenyl]-2-oxo-5-oxazolidinyl]methyl]acetamide] | 1 | 1 | 0.5 | 1 | 1 | 1 | 2 | 4 | 4
CC(=O)NC[C@H]1CN(c2ccc(N3CCN(Cc4ccc([N+](=O)[O-])n4C)CC3)c(F)c2)C(=O)O1 [Compound No. 12, (S)-N-[[3-[3-Fluoro-4-[N-1-[4-{2-pyrrole-(1-methyl-5-nitro)methyl}]piperazinyl]phenyl]-2-oxo-5-oxazolidinyl]methyl]acetamide] | 4 | 4 | 4 | 4 | 4 | 4 | 2 | 8 | 8
